Earlier results on 1 compound are cited in patent publication US8309108B2, “Intranasal compositions” (Archimedes Development Limited, priority 2007, dated 2012).

Counter-ions that a name gives are not always drawn.

For this data set the following is noted: room temperature.

As to `CN1CCc2cccc3c2C1Cc1ccc(O)c(O)c1-3` (stereo not shown) [apomorphine hydrochloride, 6aβ-aporphine-10,11-diol], the Saturated aqueous solubility entry was “around 20 mg/ml”.
